Experiments:
[1] = system: mouse neuroblastoma cell strain N1E-115; test: Inhibitory effect on neurite retraction (LPA-induced); format: cell-based; conditions: mouse/rat NG108-15; 10 μM compound, 1 μM LPA, N1E-115 cells
Protocol: An experiment for Inhibitory effect on neurite retraction using mouse neuroblastoma cell strain N1E-115 was performed according to the method of Hirose, M. et al. (J. Cell. Biol., 141, pp. 1625-1636 (1998)). This method utilizes the fact that LPA (lysophosphatidic acid), which is a endogenous substance, induces neurite retraction, and is a method of evaluating how much a drug can inhibit the LPA-induced neurite retraction and thereby evaluating potency of inhibition of neuronal degeneration and potency of neuronal regeneration of the drug. N1E-115 cells cultured in a DMEM solution containing 20% heat-inactivated fetal bovine serum were plated on a 6-well plate (IWAKI) at a density of 40,000 cells/well, and cultured overnight at 37° C. in the same culture medium in a 5% CO2 incubator. In order to induce differentiation of the N1E 115 cells into nerve cells, the culture medium was changed to the serum-free DMEM solution, and the cells were cultured for 1 or 2 days at 37° C. in the 5% CO2 incubator until most of the cells extended the neurites. On the examination day, each compound of the present invention was added at a final concentration of 10 μM, incubation was performed for 30 minutes, then LPA (Sigma) was added at a final concentration of 1 μM, and incubation was further performed for 10 minutes. To the control, the same volume of phosphate buffered saline as the solvent was added. After completion of the incubation, glutaraldehyde was added at a final concentration of 5% to fix the cells. […] The inhibition rate (%) of each drug was calculated by using the following equation. Inhibition rate(%)=100−(RCP obtained with drug to be evaluated−RCP of control)/(RCP obtained with LPA−RCP of control)×100

TNF-α production = test: Inhibitory effect on TNF-α production in mice (LPS); format: in vivo, BALB/c mice; conditions: Mus musculus, 1.5 h; oral administration of 30 mg/kg, LPS 5 μg i.p. 60 minutes later, plasma after 90 minutes; read-out: TNF-α production suppressing action
Protocol: BALB/c mice (Japan CRJ, famale) were used as experimental animals. Each test compound was dissolved in distilled water at a concentration suitable for the examination. The weight of each mouse was measured, a test compound solution was orally administered in a volume corresponding to 10 ml/kg, and only distilled water was administered to the control group. Each group consisted of five to seven animals. LPS was dissolved in physiological saline, and intraperitoneally administered to each mouse in an amount of 5 μg. The test compound was administered first, and LPS (lipopolysaccharide, Sigma) was administered 60 minutes later. After 90 minutes, blood was collected from the abdominal large vein in the presence of heparin, and plasma was obtained by centrifugation. TNF-α content in the plasma was measured by using the ELISA method.

[2] = system: rabbit normal intraocular pressure; test: Intraocular pressure reducing action; format: in vivo, Japanese white rabbit; conditions: Oryctolagus cuniculus, topical; 3 mM aqueous solution, 50 μl to the left eye; max IOP reduction (2, 4, 6 hours) / value immediately before administration; read-out: intraocular pressure reducing degree
In short: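 Japanese white rabbits (~2 kg) under topical anaesthesia received 50 μl of a 3 mM aqueous test solution in the left eye, right eye untreated. IOP read by tonometer before and at 2, 4, 6 h; maximal left–right difference divided by pre-dose IOP ×100 gives % reduction.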

human ROCK1 = target: T1, human ROCK1 (Homo sapiens, UniProt Q13464); test: Measurement of Rho kinase inhibitory activity (ELISA of MBS phosphorylation); format: biochemical; conditions: human ROCK1, MBS substrate, 100 μM ATP, 30° C. for 10 minutes
T1 construct: His tag (N); host or cells: insect cells (Sf9)
T1 sequence (Q13464 1-727): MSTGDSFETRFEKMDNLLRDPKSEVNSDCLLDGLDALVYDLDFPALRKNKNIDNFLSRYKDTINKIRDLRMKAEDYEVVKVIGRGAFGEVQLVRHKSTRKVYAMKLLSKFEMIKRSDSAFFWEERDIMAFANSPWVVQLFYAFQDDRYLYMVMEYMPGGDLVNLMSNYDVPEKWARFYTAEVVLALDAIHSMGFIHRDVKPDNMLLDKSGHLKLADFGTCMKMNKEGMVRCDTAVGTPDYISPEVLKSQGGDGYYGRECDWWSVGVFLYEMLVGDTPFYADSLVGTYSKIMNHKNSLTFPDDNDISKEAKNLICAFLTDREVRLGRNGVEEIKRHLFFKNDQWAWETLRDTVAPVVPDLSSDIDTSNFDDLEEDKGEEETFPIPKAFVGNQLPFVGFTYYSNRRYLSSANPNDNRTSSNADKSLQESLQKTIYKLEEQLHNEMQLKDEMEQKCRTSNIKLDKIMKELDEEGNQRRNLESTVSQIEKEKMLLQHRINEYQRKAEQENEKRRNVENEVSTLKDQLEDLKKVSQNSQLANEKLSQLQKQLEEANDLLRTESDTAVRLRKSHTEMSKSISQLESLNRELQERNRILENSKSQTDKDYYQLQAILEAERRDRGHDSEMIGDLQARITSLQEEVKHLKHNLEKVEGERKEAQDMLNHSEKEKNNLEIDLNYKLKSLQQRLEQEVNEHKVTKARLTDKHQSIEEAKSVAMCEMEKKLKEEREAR
In short: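 N-terminal His-tagged human ROCK1 (1-727, Sf9-expressed) phosphorylated plate-immobilized MBS in 20 mM HEPES pH 7.5, 100 μM ATP, 30° C for 10 minutes. Phospho-MBS detected by antibody ELISA (A490); IC50 is concentration giving 50% inhibition.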

Structure (SMILES) | IC50 (human ROCK1) [µM] | inhibition at 10 µM [1] [%] | inhibition in vivo at 30 mg/kg (TNF-α production) [%] | inhibition in vivo at 3000 µM [2] [%]
N[C@H]1CCN(S(=O)(=O)c2cccc3cncc(F)c23)C1 [Example 18-1, (S)-3-Amino-1-(4-fluoro-5-isoquinolinesulfonyl)pyrrolidine] | 1 to 3 | ≥ 50 | ≥ 50 | ≥ 20
O=S(=O)(c1cccc2cncc(Cl)c12)N1CC[C@H](NC2CCOCC2)C1 [Example 19-31] | 1 to 3 | ≥ 50 | ≥ 50 | –
CN[C@H]1CCN(S(=O)(=O)c2cccc3c(O)ncc(Br)c23)C1 [Example 35-1, (S)-1-(1-Hydroxy-4-bromo-5-isoquinolinesulfonyl)-3-(methylamino)pyrrolidine] | < 1 | – | ≥ 50 | 5 to 10
Nc1ncc(Cl)c2c(S(=O)(=O)N3CC[C@H](N)C3)cccc12 [Example 39-1, (S)-3-Amino-1-(1-amino-4-chloro-5-isoquinolinesulfonyl)pyrrolidine] | < 1 | ≥ 50 | ≥ 50 | 10 to 20
CN[C@H]1CCN(S(=O)(=O)c2cccc3c(N)ncc(Cl)c23)C1 [Example 40-1, (S)-1-(1-Amino-4-chloro-5-isoquinolinesulfonyl)-3-(methylamino)pyrrolidine] | 1 to 3 | ≥ 50 | ≥ 50 | 5 to 10
CN[C@H]1CCN(S(=O)(=O)c2cccc3c(N)ncc(Br)c23)C1 [Example 42-1, (S)-1-(1-Amino-4-bromo-5-isoquinolinesulfonyl)-3-(methylamino)pyrrolidine] | < 1 | ≥ 50 | – | 5 to 10
COCC(=O)N[C@H]1CCN(S(=O)(=O)c2cccc3cncc(Cl)c23)C1 [Example 56-1, (S)-3-(2-Methoxyacetyl)amino-1-(4-chloro-5-isoquinolinesulfonyl)pyrrolidine] | 1 to 3 | – | ≥ 30 | ≥ 20

More lines, main results first:

IC50 (human ROCK1) [µM] | Structure (SMILES) | inhibition at 10 µM [1] [%] | inhibition in vivo at 30 mg/kg (TNF-α production) [%] | inhibition in vivo at 3000 µM [2] [%]
< 1 | O=S(=O)(c1cccc2cncc(Br)c12)N1CC[C@H](NCc2ccc[nH]2)C1 [Example 1-18] | ≥ 50 | ≥ 50 | 10 to 20
< 1 | N[C@H]1CCN(S(=O)(=O)c2cccc3cncc(C4CC4)c23)C1 [Example 11-1, (S)-3-Amino-1-(4-cyclopropyl-5-isoquinolinesulfonyl)pyrrolidine] | – | ≥ 30 | 5 to 10
< 1 | N[C@H]1CCN(S(=O)(=O)c2cccc3c(O)ncc(F)c23)C1 [Example 29-1, (S)-3-Amino-1-(1-hydroxy-4-fluoro-5-isoquinolinesulfonyl)pyrrolidine] | ≥ 50 | ≥ 50 | 10 to 20
< 1 | CN[C@@H]1CCN(S(=O)(=O)c2cccc3cncc(Cl)c23)C1 [Example 32-2, (R)-1-(4-Chloro-5-isoquinolinesulfonyl)-3-(methylamino)pyrrolidine] | ≥ 50 | – | 10 to 20

— patent US7964613B2 (Asahi Kasei Pharma Corporation, priority 2007, dated 2011)
